# Marks after values point to notes of the source that are not given here.
# What was measured:
# Format in all cases: in vivo
# [1] = tested on: CCl4 administration in mice; assay: Hexobarbitone sleep time after CCl4 administration
# [2] = tested on: CCl4 induced hepatic injury in rats; assay: Hepatoprotective activity, prophylactic study, CCl4
# [3] = tested on: acetaminophen (APAP) in mice; assay: Hepatoprotective activity, curative study, acetaminophen (APAP) after diethyl-ether
# [4] = tested on: alcohol induced hepatic damage in rats; assay: Hepatoprotective activity against alcohol induced hepatic damage (serum and hepatic parameters); details: for Hepatic Protein % change: only change and not protection
# [5] = 12.5 mg/kg p.o. 1 h before CCl4, mice
# [6] = 25 mg/kg p.o. 1 h before CCl4, mice
# [7] = 50 mg/kg p.o. 1 h before CCl4, mice
# [8] = 100 mg/kg p.o. 1 h before CCl4, mice
# [9] = 12.5 mg/kg p.o. + CCl4, prophylactic
# [10] = 25 mg/kg p.o. + CCl4, prophylactic
# [11] = 50 mg/kg p.o. + CCl4, prophylactic
# [12] = 100 mg/kg p.o. + CCl4, prophylactic
# [13] = TCA alone 100 mg/kg p.o., no CCl4, prophylactic study
# [14] = 12.5 mg/kg p.o. + APAP, curative
# [15] = 100 mg/kg p.o. + APAP, curative
# [16] = TCA alone 100 mg/kg p.o., no APAP, curative study
smiles,measurement,setting,value
"CCCCCCCC/C=C/CCCCCCCCCCCCCC(=O)O [TCA, t-Tetracos-15-enoic acid]",Hexobarbitone Hepatoprotection,[1]; [5],35.55 ± 5.78%
same,Hexobarbitone Sleeping time,[1]; [5],44.16 ± 1.87*^c min
same,Hexobarbitone Hepatoprotection,[1]; [6],55.14 ± 7.16%
same,Hexobarbitone Sleeping time,[1]; [6],37.83 ± 2.31**^c min
same,Hexobarbitone Hepatoprotection,[1]; [7],74.21 ± 6.27%
same,Hexobarbitone Sleeping time,[1]; [7],31.66 ± 2.31**^c min
same,Hexobarbitone Hepatoprotection,[1]; [8],85.04 ± 7.12%
same,Hexobarbitone Sleeping time,[1]; [8],28.16 ± 2.30**^c min
same,Hexobarbitone Sleeping time,"[1]; TCA alone 100 mg/kg p.o., no CCl4, mice",21.85 ± 1.34 min
same,Serum ALP,[2]; [9],45.25 ± 2.37^NS μmole of p-nitrophenol formed/min/L
same,"Serum ALP, hepatoprotective activity percent",[2]; [9],(26.32 ± 6.55) percent
same,Serum Bilirubin,[2]; [9],0.47 ± 0.01 mg %
same,"Serum Bilirubin, hepatoprotective activity percent",[2]; [9],(47.98 ± 2.02) percent
same,Serum GOT,[2]; [9],695.16 ± 67.28 Units
same,"Serum GOT, hepatoprotective activity percent",[2]; [9],(33.87 ± 7.99) percent
same,Serum GPT,[2]; [9],992.34 ± 73.25 Units
same,"Serum GPT, hepatoprotective activity percent",[2]; [9],(41.52 ± 4.97) percent
same,Serum Triglycerides,[2]; [9],13.51 ± 0.51^NS mg %
same,"Serum Triglycerides, hepatoprotective activity percent",[2]; [9],(26.40 ± 7.84) percent
same,Serum ALP,[2]; [10],39.48 ± 2.46 μmole of p-nitrophenol formed/min/L
same,"Serum ALP, hepatoprotective activity percent",[2]; [10],(43.28 ± 7.81) percent
same,Serum Bilirubin,[2]; [10],0.42 ± 0.01 mg %
same,"Serum Bilirubin, hepatoprotective activity percent",[2]; [10],(55.33 ± 2.86) percent
same,Serum GOT,[2]; [10],674.44 ± 53.20 Units
same,"Serum GOT, hepatoprotective activity percent",[2]; [10],(36.33 ± 6.32) percent
same,Serum GPT,[2]; [10],924.39 ± 39.82 Units
same,"Serum GPT, hepatoprotective activity percent",[2]; [10],(46.10 ± 2.70) percent
same,Serum Triglycerides,[2]; [10],12.11 ± 0.70^NS mg %
same,"Serum Triglycerides, hepatoprotective activity percent",[2]; [10],(47.72 ± 11.33) percent
same,Serum ALP,[2]; [11],35.19 ± 2.90 μmole of p-nitrophenol formed/min/L
same,"Serum ALP, hepatoprotective activity percent",[2]; [11],(56.81 ± 9.15) percent
same,Serum Bilirubin,[2]; [11],0.34 ± 0.01 mg %
same,"Serum Bilirubin, hepatoprotective activity percent",[2]; [11],(67.67 ± 2.30) percent
same,Serum GOT,[2]; [11],543.99 ± 79.93 Units
same,"Serum GOT, hepatoprotective activity percent",[2]; [11],(51.82 ± 9.94) percent
same,Serum GPT,[2]; [11],636.69 ± 44.49 Units
same,"Serum GPT, hepatoprotective activity percent",[2]; [11],(65.66 ± 3.02) percent
same,Serum Triglycerides,[2]; [11],11.89 ± 0.75^NS mg %
same,Serum ALP,[2]; [12],30.14 ± 2.54 μmole of p-nitrophenol formed/min/L
same,"Serum ALP, hepatoprotective activity percent",[2]; [12],(72.92 ± 8.07) percent
same,Serum Bilirubin,[2]; [12],0.26 ± 0.02 mg %
same,"Serum Bilirubin, hepatoprotective activity percent",[2]; [12],(79.04 ± 3.57) percent
same,Serum GOT,[2]; [12],432.08 ± 37.38 Units
same,"Serum GOT, hepatoprotective activity percent",[2]; [12],(65.10 ± 4.50) percent
same,Serum GPT,[2]; [12],419.72 ± 17.60 Units
same,"Serum GPT, hepatoprotective activity percent",[2]; [12],(80.39 ± 1.19) percent
same,Serum Triglycerides,[2]; [12],11.20 ± 0.68^NS mg %
same,"Serum Triglycerides, hepatoprotective activity percent",[2]; [12],(61.75 ± 1.44) percent
same,Serum ALP,[2]; [13],23.15 ± 2.92 μmole of p-nitrophenol formed/min/L
same,Serum Bilirubin,[2]; [13],0.17 ± 0.02 mg %
same,Serum GOT,[2]; [13],110.53 ± 25.55 Units
same,Serum GPT,[2]; [13],102.66 ± 28.41 Units
same,Serum Triglycerides,[2]; [13],6.98 ± 0.79 mg %
same,Serum ALP,[3]; [14],50.41 ± 3.07^NS μmole of p-nitophenol formed/min/L
same,"Serum ALP, hepatoprotective activity percent",[3]; [14],(21.27 ± 9.50) percent
same,Serum GOT,[3]; [14],1079.43 ± 98.66^NS Units
same,"Serum GOT, hepatoprotective activity percent",[3]; [14],(25.66 ± 7.72) percent
same,Serum GPT,[3]; [14],431.85 ± 25.52 Units
same,"Serum GPT, hepatoprotective activity percent",[3]; [14],(49.67 ± 2.81) percent
same,Serum Triglycerides,[3]; [14],14.72 ± 0.68^NS mg %
same,"Serum Triglycerides, hepatoprotective activity percent",[3]; [14],(28.28 ± 8.27) percent
same,Serum ALP,"[3]; 25 mg/kg p.o. + APAP, curative",46.23 ± 1.73 μmole of p-nitophenol formed/min/L
same,"Serum ALP, hepatoprotective activity percent","[3]; 25 mg/kg p.o. + APAP, curative",(34.15 ± 5.39) percent
same,Serum GOT,"[3]; 25 mg/kg p.o. + APAP, curative",880.10 ± 60.29 Units
same,"Serum GOT, hepatoprotective activity percent","[3]; 25 mg/kg p.o. + APAP, curative",(41.26 ± 4.72) percent
same,Serum GPT,"[3]; 25 mg/kg p.o. + APAP, curative",320.07 ± 41.33 Units
same,"Serum GPT, hepatoprotective activity percent","[3]; 25 mg/kg p.o. + APAP, curative",(67.52 ± 7.71) percent
same,Serum Triglycerides,"[3]; 25 mg/kg p.o. + APAP, curative",13.47 ± 0.89^NS mg %
same,"Serum Triglycerides, hepatoprotective activity percent","[3]; 25 mg/kg p.o. + APAP, curative",(43.32 ± 10.80) percent
same,Serum ALP,"[3]; 50 mg/kg p.o. + APAP, curative",41.44 ± 1.27 μmole of p-nitophenol formed/min/L
same,"Serum ALP, hepatoprotective activity percent","[3]; 50 mg/kg p.o. + APAP, curative",(49.04 ± 3.94) percent
same,Serum GOT,"[3]; 50 mg/kg p.o. + APAP, curative",619.36 ± 88.89 Units
same,"Serum GOT, hepatoprotective activity percent","[3]; 50 mg/kg p.o. + APAP, curative",(61.67 ± 6.96) percent
same,Serum GPT,"[3]; 50 mg/kg p.o. + APAP, curative",282.74 ± 32.96 Units
same,Serum Triglycerides,"[3]; 50 mg/kg p.o. + APAP, curative",12.34 ± 0.85 mg %
same,"Serum Triglycerides, hepatoprotective activity percent","[3]; 50 mg/kg p.o. + APAP, curative",(56.84 ± 10.23) percent
same,Serum ALP,[3]; [15],35.08 ± 2.18 μmole of p-nitophenol formed/min/L
same,"Serum ALP, hepatoprotective activity percent",[3]; [15],(68.82 ± 6.78) percent
same,Serum GOT,[3]; [15],310.53 ± 45.32 Units
same,"Serum GOT, hepatoprotective activity percent",[3]; [15],(85.85 ± 4.25) percent
same,Serum GPT,[3]; [15],235.59 ± 22.77 Units
same,"Serum GPT, hepatoprotective activity percent",[3]; [15],(83.33 ± 1.99) percent
same,Serum Triglycerides,[3]; [15],10.87 ± 0.69 mg %
same,"Serum Triglycerides, hepatoprotective activity percent",[3]; [15],(74.48 ± 8.37) percent
same,Serum ALP,[3]; [16],22.57 ± 2.95 μmole of p-nitophenol formed/min/L
same,Serum GOT,[3]; [16],133.77 ± 20.84 Units
same,Serum GPT,[3]; [16],129.65 ± 24.84 Units
same,Serum Triglycerides,[3]; [16],7.43 ± 0.89 mg %
same,Hepatic G-6-Pase,[4]; 25 mg/kg + Alcohol,2.19 ± 0.465 Units/g
same,Hepatic G-6-Pase % Protection,[4]; 25 mg/kg + Alcohol,73%
same,Hepatic Protein,[4]; 25 mg/kg + Alcohol,172 ± 20.430 Mg/g
same,Hepatic SDII,[4]; 25 mg/kg + Alcohol,7.79 ± 0.272 Units/G
same,Hepatic SDII % Protection,[4]; 25 mg/kg + Alcohol,14%
same,Hepatic TG,[4]; 25 mg/kg + Alcohol,14.75 ± 0.60 Mg/g
same,Hepatic TG % change,[4]; 25 mg/kg + Alcohol,−3.10%
same,Hepatic Protein % change,[4]; 25 mg/kg + Alcohol,−3.9%
same,ALF,"[4]; 25 mg/kg + Alcohol, serum",16.00 ± 2.04 U/I
same,ALF % Protection,"[4]; 25 mg/kg + Alcohol, serum",80.00%
same,GGT,"[4]; 25 mg/kg + Alcohol, serum",1.90 ± 0.447 IU/I
same,GGT % Protection,"[4]; 25 mg/kg + Alcohol, serum",63.00%
same,SGOT,"[4]; 25 mg/kg + Alcohol, serum",310.00 ± 30.36**^β U/I
same,SGOT % Protection,"[4]; 25 mg/kg + Alcohol, serum",77.29%
same,SGPT,"[4]; 25 mg/kg + Alcohol, serum",234.00 ± 8.80**^β U/I
same,SGPT % Protection,"[4]; 25 mg/kg + Alcohol, serum",57.33%
same,Serum Protein,"[4]; 25 mg/kg + Alcohol, serum",16.90 ± 3.38 G/dl
same,Serum Protein % Protection,"[4]; 25 mg/kg + Alcohol, serum",44.40%
same,Hepatic G-6-Pase,[4]; 50 mg/kg + Alcohol,2.20 ± 2.223 Units/g
same,Hepatic G-6-Pase % Protection,[4]; 50 mg/kg + Alcohol,75%
same,Hepatic Protein,[4]; 50 mg/kg + Alcohol,174 ± 2.11 Mg/g
same,Hepatic SDII,[4]; 50 mg/kg + Alcohol,8.24 ± 0.390 Units/G
same,Hepatic SDII % Protection,[4]; 50 mg/kg + Alcohol,43%
same,Hepatic TG,[4]; 50 mg/kg + Alcohol,15.44 ± 1.073 Mg/g
same,Hepatic TG % change,[4]; 50 mg/kg + Alcohol,1.40%
same,Hepatic Protein % change,[4]; 50 mg/kg + Alcohol,−2.80%
same,ALF,"[4]; 50 mg/kg + Alcohol, serum",14.60 ± 2.82***^β U/I
same,ALF % Protection,"[4]; 50 mg/kg + Alcohol, serum",95.00%
same,GGT,"[4]; 50 mg/kg + Alcohol, serum",1.54 ± 0.128 IU/I
same,GGT % Protection,"[4]; 50 mg/kg + Alcohol, serum",90.00%
same,SGOT,"[4]; 50 mg/kg + Alcohol, serum",295.00 ± 34.39**^β U/I
same,SGOT % Protection,"[4]; 50 mg/kg + Alcohol, serum",101.09%
same,SGPT % Protection,"[4]; 50 mg/kg + Alcohol, serum",73.86%
same,Serum Protein,"[4]; 50 mg/kg + Alcohol, serum",12.60 ± 3.09 G/dl
same,Serum Protein % Protection,"[4]; 50 mg/kg + Alcohol, serum",7.70%

# Reference: patent publication US6852759B2, “Process for the synthesis of trans-alkenoic acids, use thereof” (priority 2002, dated 2005)
